# Source: paper PMC8062304 (Journal of the American Chemical Society, 2021)
# How the values were obtained:
# [1] = tested on: transcription/translation (production of the fluorescent protein mCherry); format: biochemical, E. coli; conditions: CFB-produced capistruin supplied at 10 µM; compared to a control that omitted capistruin; fluorescence reporter
# [2] = cited from earlier work
# carboxypeptidase Y = target: T1, carboxypeptidase Y (Saccharomyces cerevisiae, UniProt P00729); format: in vitro ADME; conditions: after 2 h at 95 °C; CFB-produced lasso peptide from native BGC; Figure S7
# T1 sequence (P00729 112-532): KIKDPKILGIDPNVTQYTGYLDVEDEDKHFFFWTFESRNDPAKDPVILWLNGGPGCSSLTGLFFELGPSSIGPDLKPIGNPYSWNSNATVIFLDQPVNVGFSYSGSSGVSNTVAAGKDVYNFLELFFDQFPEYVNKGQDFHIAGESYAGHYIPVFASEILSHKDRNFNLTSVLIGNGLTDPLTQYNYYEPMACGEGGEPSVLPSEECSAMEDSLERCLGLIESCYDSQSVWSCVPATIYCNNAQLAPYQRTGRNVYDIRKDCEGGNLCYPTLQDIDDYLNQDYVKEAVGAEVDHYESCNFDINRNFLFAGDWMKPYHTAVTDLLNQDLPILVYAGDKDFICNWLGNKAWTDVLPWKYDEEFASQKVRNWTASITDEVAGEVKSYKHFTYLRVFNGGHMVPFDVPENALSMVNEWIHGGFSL
Substance,reduction in mCherry production [1] [%],conformation after extended exposure to organic solvent [2],carboxypeptidase Y resistance after prolonged heating (carboxypeptidase Y)
"capistruin (GTPGFQTPDARVISRFGFN; Capistruin; UniProt P0DQM5 29-47, looked up)",66,,
fusilassin,,adopted a branched-cyclic form,efficient carboxypeptidase Y digestion
cellulassin,,,efficient carboxypeptidase Y digestion
burhizin,,,retained protease resistance
